Measured values from patent US5539119A, “Indole derivatives” (priority 1990, dated 1996).
pIC50, pKi: −log10 of the molar value. Where two headings read alike, the source gives them in different places.

How the values were obtained:
μ opioid receptor = target: T1, μ opioid receptor (Cavia porcellus, UniProt A0ACM8Q262); assay: Bonding (binding) assay, guinea pig brain homogenate, 3H-DAGO (hot) / naloxone (cold); details: for pKi: guinea pig brain homogenate; for Ki ratio κ/μ: selectivity ratio
T1 construct: 3H-DAGO (DAMGO) radioligand, cold naloxone
Method: (§1) In the test for bonding, the homogenate of the brain of a guinea pig was diluted with Tris buffer in a ratio calculated to give to the produced solution a protein content of 0.7 mg per prot/tube was used as incorporated in the reaction solution. With regard to ligands for binding assay, 3H-DAGO (μ), DPDPE (δ), and EKC (κ) were used for hot samples and naloxone (μ), DADLE (δ), and naloxone (κ) for cold samples.

δ opioid receptor [1] = target: T2, δ opioid receptor (Cavia porcellus, UniProt A0A286XTF2); assay: Bonding (binding) assay, guinea pig brain homogenate, DPDPE (hot) / DADLE (cold)
T2 construct: the homogenate of the brain of a guinea pig; from tissue; host or cells: guinea pig brain homogenate
Method: as §1

δ opioid receptor [2] = assay: as above; details: μ/δ
Method: as §1

[3] = test system: Guinea Pig Ileal Longitudinal Muscle; assay: GPI, shift of the compound's effect by naloxone or nor-BNI; set-up: GPI nor-BN1 Ke: unit not given here
Method: (§2) The test of the compounds of this invention for agonist and antagonist activities was carried out in according to the method proposed by Takemori et al. (Takemori, A, E. et al.: Eur. J. Pharmacal., 1982, 85, 163) using Guinea Pig Ileal Longitudinal Muscle Mouse Vas Deferens (MVD).

Mouse Vas Deferens (MVD) = assay: Agonist activity in Mouse Vas Deferens (MVD); details: read-out: MVD IC50
Method: as §2

κ opioid receptor = target: T3, κ opioid receptor (Cavia porcellus, UniProt P41144); assay: Bonding (binding) assay, guinea pig brain homogenate, EKC (hot) / naloxone (cold)
T3 construct: the homogenate of the brain of a guinea pig; from tissue; host or cells: guinea pig brain homogenate
Method: as §1

δ-receptor = target: T4, δ-receptor (Mus musculus, UniProt P32300); assay: Antagonism to DPDPE in Mouse Vas Deferens (MVD)
T4 construct: from tissue; host or cells: mouse vas deferens

[4] = test system: Guinea Pig Ileal Longitudinal Muscle; assay: Agonist activity in Guinea Pig Ileal Longitudinal Muscle (GPI); details: for pIC50: guinea pig ileum
Method: as §2

mouse T cells = assay: Inhibiting proliferation of mouse T cells by Con-A stimulation ([3H]thymidine uptake, spleen cells); type: cell-based; details: for IC50: ConA-stimulated mouse T cells
Method: Now, the immunosuppressive activity of the compound 19 which is representative of the compounds of the present invention will be shown. Activity in inhibiting proliferation of mouse T cells by Con-A stimulation
A monocellular suspension was prepared by sterilely removing the spleen from a mouse and passing the spleen through a mesh. This suspension was adjusted to a concentration of 5×10^6 cells/ml and dispensed by the unit of 100 μl in all the individual wells of a 96-well plate. […] Eight hours before completion of the incubation, [^3 H]thymidine was added to the contents of the wells in a fixed ratio of 2 μCi/10 μl/well. Eight hours after this addition, the cells in the wells were collected on filter papers with the aid of a cell harvester. The cells on the filter papers were dried, then combined with a toluene type scintillator, and counted for the radioactivity of the [^3 H] thymidine occluded in the cells by means of a scintillation counter.
The ratio of suppression of T cell proliferation was calculated in accordance with the following formula:
Rate of suppression=(Radioactivity in the absence of compound-Radioactivityafter addition of compound)/(Radioactivity in the absence of compound-Radioactivity in the absence of ConA)

[5] = guinea pig brain homogenate, read-out: Bonding assay Ki value δ

T3 sequence (P41144 whole entry): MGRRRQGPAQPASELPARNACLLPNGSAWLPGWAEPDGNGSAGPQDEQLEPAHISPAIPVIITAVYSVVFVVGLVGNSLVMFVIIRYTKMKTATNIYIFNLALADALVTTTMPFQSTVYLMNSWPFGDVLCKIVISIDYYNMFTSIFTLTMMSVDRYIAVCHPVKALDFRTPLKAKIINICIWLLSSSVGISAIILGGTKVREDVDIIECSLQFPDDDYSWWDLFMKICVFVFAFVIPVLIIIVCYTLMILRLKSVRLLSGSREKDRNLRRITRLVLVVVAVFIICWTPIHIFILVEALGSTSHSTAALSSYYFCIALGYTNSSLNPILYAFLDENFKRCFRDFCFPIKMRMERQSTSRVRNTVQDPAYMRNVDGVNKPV
T4 sequence (P32300 whole entry): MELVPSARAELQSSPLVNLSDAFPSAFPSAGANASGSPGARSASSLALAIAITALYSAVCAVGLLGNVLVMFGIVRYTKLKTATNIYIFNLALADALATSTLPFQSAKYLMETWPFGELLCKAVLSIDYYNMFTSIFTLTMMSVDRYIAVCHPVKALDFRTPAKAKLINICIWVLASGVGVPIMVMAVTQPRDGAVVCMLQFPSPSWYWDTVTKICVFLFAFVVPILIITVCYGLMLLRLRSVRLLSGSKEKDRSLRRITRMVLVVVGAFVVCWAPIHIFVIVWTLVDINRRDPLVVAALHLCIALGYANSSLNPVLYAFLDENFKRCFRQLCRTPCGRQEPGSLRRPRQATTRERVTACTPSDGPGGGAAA
T1 sequence (A0ACM8Q262 1-400): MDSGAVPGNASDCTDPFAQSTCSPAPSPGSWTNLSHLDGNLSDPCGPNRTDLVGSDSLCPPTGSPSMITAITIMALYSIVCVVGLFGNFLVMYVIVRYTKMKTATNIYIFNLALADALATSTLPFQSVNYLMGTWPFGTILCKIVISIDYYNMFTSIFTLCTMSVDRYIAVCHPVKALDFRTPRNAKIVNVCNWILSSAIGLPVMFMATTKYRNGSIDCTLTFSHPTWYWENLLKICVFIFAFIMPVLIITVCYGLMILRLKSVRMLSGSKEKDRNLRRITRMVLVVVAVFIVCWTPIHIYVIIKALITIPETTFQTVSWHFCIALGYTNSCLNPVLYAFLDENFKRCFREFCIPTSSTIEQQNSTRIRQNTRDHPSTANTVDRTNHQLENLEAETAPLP
T2 sequence (A0A286XTF2 1-366): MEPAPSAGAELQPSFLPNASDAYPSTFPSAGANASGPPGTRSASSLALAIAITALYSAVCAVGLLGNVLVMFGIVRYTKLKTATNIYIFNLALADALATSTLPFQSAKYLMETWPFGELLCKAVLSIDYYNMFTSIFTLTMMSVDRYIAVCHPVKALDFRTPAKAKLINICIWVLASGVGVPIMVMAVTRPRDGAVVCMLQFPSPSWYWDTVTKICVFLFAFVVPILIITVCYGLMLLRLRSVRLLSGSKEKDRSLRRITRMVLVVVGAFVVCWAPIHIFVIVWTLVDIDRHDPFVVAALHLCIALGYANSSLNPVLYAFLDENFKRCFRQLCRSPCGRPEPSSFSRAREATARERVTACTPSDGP

CN1CC[C@]2(c3cccc(O)c3)Cc3[nH]c4ccccc4c3C[C@H]2C1 (relative stereo) [Compound 2, 2-Methyl-4aα-(3-hydroxyphenyl)-1,2,3,4,4a,5,11,11aβ-octahydro-6H-indolo[2,3-g]isoquinoline]
pKi (μ opioid receptor): 5.78
Ki ratio κ/μ (μ opioid receptor): > 3.62
pKi (δ opioid receptor [1]; [5]): 6.71
Ki ratio μ/δ (δ opioid receptor [2]): > 30.9
Ki ratio μ/δ (δ opioid receptor [2]; selectivity ratio): 8.55
GPI naloxone DR [3]: 1.12
GPI nor-BN1 DR [3]: 1.25
GPI nor-BN1 Ke [3]: 301
GPI nor-BN1 pA2 [3]: 6.65
pIC50 (Mouse Vas Deferens (MVD)): 4.16
pKi (κ opioid receptor): < 5.22
Kb (δ-receptor; at 100 nM): 138 nM
MVD Antagonism to DPDPE at 100 nM, DR (δ-receptor; at 100 nM): 8.14
pIC50 [4]: 4.19

Cc1ccc2[nH]c3c(c2c1)C[C@H]1CN(C)CC[C@]1(c1cccc(O)c1)C3 (relative stereo) [Compound 4, 2-Methyl-4aα-(3-hydroxyphenyl)-9-methyl-1,2,3,4,4a,5,11,11aβ-octahydro-6H-indolo[2,3-q]isoquinoline]
pKi (μ opioid receptor): 5.19
Ki ratio κ/μ (μ opioid receptor): > 1.81
pKi (δ opioid receptor [1]; [5]): 5.91
Ki ratio μ/δ (δ opioid receptor [2]): > 9.35
Ki ratio μ/δ (δ opioid receptor [2]; selectivity ratio): 5.18
GPI naloxone DR [3]: 0.62
GPI nor-BN1 DR [3]: 1.17
pIC50 (Mouse Vas Deferens (MVD)): 4.34
pKi (κ opioid receptor): < 4.94
Kb (δ-receptor; at 100 nM): 427 nM
MVD Antagonism to DPDPE at 100 nM, DR (δ-receptor; at 100 nM): 3.37
pIC50 [4]: 4.55

CN1CC[C@]2(c3cccc(O)c3)Cc3[nH]c4ccc(Cl)cc4c3C[C@H]2C1 (relative stereo) [Compound 6, 2-Methyl-4aα-(3-hydroxyphenyl)-9-chloro-1,2,3,4,4a,5,11,11aβ-octahydro-6H-indolo[2,3-q]isoquinoline]
pKi (μ opioid receptor): < 5.15
Ki ratio κ/μ (μ opioid receptor): > 3.86
pKi (δ opioid receptor [1]; [5]): 5.96
Ki ratio μ/δ (δ opioid receptor [2]): > 24.9
Ki ratio μ/δ (δ opioid receptor [2]; selectivity ratio): > 6.45
GPI naloxone DR [3]: 0.86
GPI nor-BN1 DR [3]: 1.23
GPI nor-BN1 Ke [3]: 77.0
GPI nor-BN1 pA2 [3]: 7.16
pIC50 (Mouse Vas Deferens (MVD)): 4.63
pKi (κ opioid receptor): < 4.56
Kb (δ-receptor; at 100 nM): 240 nM
MVD Antagonism to DPDPE at 100 nM, DR (δ-receptor; at 100 nM): 5.16
pIC50 [4]: 5.10

CN1CC[C@]2(c3cccc(O)c3)Cc3[nH]c4c(F)cccc4c3C[C@H]2C1 (relative stereo) [Compound 8, 2-Methyl-4aα-(3-hydroxyphenyl)-7-fluoro-1,2,3,4,4a,5,11,11aβ-octahydro-6H-indolo[2,3-g]isoquinoline]
pKi (μ opioid receptor): 5.34
Ki ratio κ/μ (μ opioid receptor): > 1.47
pKi (δ opioid receptor [1]): 7.23
Ki ratio μ/δ (δ opioid receptor [2]): > 114
Ki ratio μ/δ (δ opioid receptor [2]; selectivity ratio): 77.8
GPI naloxone DR [3]: 0.80
GPI nor-BN1 DR [3]: 1.04
pIC50 (Mouse Vas Deferens (MVD)): 4.59
pKi (κ opioid receptor): < 5.17
Kb (δ-receptor; MVD Antagonism to DPDPE at 100 nM, pA2, at 100 nM): 70.8 nM
MVD Antagonism to DPDPE at 100 nM, DR (δ-receptor; at 100 nM): 15.0
pIC50 [4]: 4.64

CN1CC[C@]2(c3cccc(O)c3)Cc3c(c4ccccc4n3C)C[C@H]2C1 (relative stereo) [Compound 12, 2-Methyl-4aα-(3-hydroxyphenyl)-1,2,3,4,4a,5,11,11aβ-octahydro-6-methyl-indolo[2,3-g]isoquinoline]
pKi (μ opioid receptor): 5.91
Ki ratio κ/μ (μ opioid receptor): 0.31
pKi (δ opioid receptor [1]; [5]): 6.92
Ki ratio μ/δ (δ opioid receptor [2]): 3.17
Ki ratio μ/δ (δ opioid receptor [2]; selectivity ratio): 10.3
GPI naloxone DR [3]: 0.61
GPI nor-BN1 DR [3]: 0.70
pIC50 (Mouse Vas Deferens (MVD)): 4.60
pKi (κ opioid receptor): 6.42
Kb (δ-receptor; at 100 nM): 138 nM
MVD Antagonism to DPDPE at 100 nM, DR (δ-receptor; at 100 nM): 8.27
pIC50 [4]: 4.41

Oc1cccc([C@]23CCN(CC4CC4)C[C@@H]2Cc2c([nH]c4ccccc24)C3)c1 (relative stereo) [Compound 19, 2-Cyclopropylmethyl-4aα-(3-hydroxyphenyl)-1,2,3,4,4a,5,11,11β-octahydro-6H-indolo[2,3-g]isoquinoline]
pKi (μ opioid receptor): 6.15
pKi (δ opioid receptor [1]): 8.46
GPI naloxone DR [3]: 0.93
GPI nor-BN1 DR [3]: 0.95
pIC50 (Mouse Vas Deferens (MVD)): 4.54
activity in immunosuppression / inhibiting T cell proliferation, in words (mouse T cells): clearly strong activity in immunosuppression
inhibition at 0.1 µg/mL (mouse T cells; Mus musculus, T-cell, 48 h, 0.1 μg/ml, n = 3, read-out: Ratio of suppression of T cell proliferation): 6%
inhibition at 0.5 µg/mL (mouse T cells; Mus musculus, T-cell, 48 h, 0.5 μg/ml, n = 3, read-out: Ratio of suppression of T cell proliferation): 0%
inhibition at 0.75 µg/mL (mouse T cells; Mus musculus, T-cell, 48 h, 0.75 μg/ml, n = 3, read-out: Ratio of suppression of T cell proliferation): 18%
inhibition at 1 µg/mL (mouse T cells; Mus musculus, T-cell, 48 h, 1.0 μg/ml, n = 3, read-out: Ratio of suppression of T cell proliferation): 1%
inhibition at 2.5 µg/mL (mouse T cells; Mus musculus, T-cell, 48 h, 2.5 μg/ml, n = 3, read-out: Ratio of suppression of T cell proliferation): 33%
inhibition at 5 µg/mL (mouse T cells; Mus musculus, T-cell, 48 h, 5.0 μg/ml, n = 3, read-out: Ratio of suppression of T cell proliferation): 94%
inhibition at 7.5 µg/mL (mouse T cells; Mus musculus, T-cell, 48 h, 7.5 μg/ml, n = 3, read-out: Ratio of suppression of T cell proliferation): 100%
inhibition at 10 µg/mL (mouse T cells; Mus musculus, T-cell, 48 h, 10.0 μg/ml, n = 3, read-out: Ratio of suppression of T cell proliferation): 100%
inhibition at 12.5 µg/mL (mouse T cells; Mus musculus, T-cell, 48 h, 12.5 μg/ml, n = 3, read-out: Ratio of suppression of T cell proliferation): 100%
inhibition at 15 µg/mL (mouse T cells; Mus musculus, T-cell, 48 h, 15.0 μg/ml, n = 3, read-out: Ratio of suppression of T cell proliferation): 100%
inhibition at 17.5 µg/mL (mouse T cells; Mus musculus, T-cell, 48 h, 17.5 μg/ml, n = 3, read-out: Ratio of suppression of T cell proliferation): 100%
inhibition at 20 µg/mL (mouse T cells; Mus musculus, T-cell, 48 h, 20.0 μg/ml, n = 3, read-out: Ratio of suppression of T cell proliferation): 100%
IC50 (mouse T cells; Mus musculus, T-cell, read-out: IC50, activity in inhibiting T cell hyperplasia (Table 3)): 2.7 µg/mL
IC50 (mouse T cells; Mus musculus, T-cell, read-out: IC50 value, immunosuppression (text to Table 2)): 3 µg/mL
pKi (κ opioid receptor): 6.02
MVD Antagonism to DPDPE, DR (δ-receptor; (20 nM)): 5.17
MVD Antagonism to DPDPE, DR (δ-receptor; (50 nM)): 9.62
Kb (δ-receptor; MVD Antagonism to DPDPE, pA2, (20 nM)): 5.01 nM
Kb (δ-receptor; MVD Antagonism to DPDPE, pA2, (50 nM)): 6.03 nM
effect on inhibition of contraction by DPDPE, in words (δ-receptor; Mouse Vas Deferens): selectively attenuate the inhibition of contraction by DPDPE
effect on contraction of guinea pig ileum, in words [4]: avoids affecting the inhibition of contraction of the ileum of a guinea pig
pIC50 [4]: 4.46
